Each compound was assayed on mice (assay: Hypnotic activity: loss of righting reflex after intravenous injection in mice). Conditions: Mus musculus, intravenous injection over 10 seconds, dose causing loss of righting reflex for minimum 30 seconds in 50% of treated mice, read-out: HD50 (hypnotic dose50).
Assay type: in vivo
Method: The hypnotic potency of the alanine 2,6-dialkoxyphenyl ester derivatives of the invention was determined upon their intravenous administration in mice. The dose required to cause a loss of righting reflex for a minimum period of 30 seconds in 50% of treated mice after intravenous injection over 10 seconds was determined. This dose is termed the HD50 (hypnotic dose50) and is expressed in μmol.kg^−1. These in vivo experiments were carried out as described in detail by Anderson et al., J. Med. Chem. 1997, 40, 1668–1681.

In order of rising ED50:
1. COc1cccc(OC)c1OC(=O)C(CN1CCSCC1)N1CCSCC1 (centres unmarked) [Example 18a, 2,3-Di-(N-thiomorpholinyl)propanoic acid, 2,6-dimethoxyphenyl ester]  15 µmol/kg
2. CCOCCC(C(=O)Oc1c(OC)cc(C)cc1OC)N1CCCCCC1 (centres unmarked) [Example 10u, 4-Ethoxy-2-[1-hexahydroazepinyl]butyric acid, 2,6-dimethoxy-4-methylphenyl ester]  17 µmol/kg
3. COCCC(C(=O)Oc1c(OC)cccc1OC)N1CCCCC1 (centres unmarked) [Example 10f, 4-Methoxy-2-[1-piperidinyl]butyric acid, 2,6-dimethoxyphenyl ester]  22 µmol/kg
4. CCOCCC(C(=O)Oc1c(OC)cccc1OC)N1CCCCCC1 (centres unmarked) [Example 10q, 4-Ethoxy-2-[1-hexahydroazepinyl]butyric acid, 2,6-dimethoxyphenyl ester]  25 µmol/kg
5. COc1cccc(OC)c1OC(=O)C(CN1CCOCC1)N1CCOCC1 (centres unmarked) [Example 18c, 2,3-Di-(4-morpholinyl)propanoic acid, 2,6-dimethoxyphenyl ester]  31 µmol/kg
6. COCC(C(=O)Oc1c(OC)cc(C)cc1OC)N1CCCC1 (centres unmarked) [Example 3n, 3-Methoxy-2-[1-pyrrolidinyl]propionic acid, 2,6-dimethoxy-4-methylphenyl ester]  34 µmol/kg
7. COCCC(C(=O)Oc1c(OC)cc(C)cc1OC)N1CCOCC1 (centres unmarked) [Example 10i, 4-Methoxy-2-[4-morpholinyl]butyric acid, 2,6-dimethoxy-4-methylphenyl ester]  36 µmol/kg
8. CCOCCC(C(=O)Oc1c(OC)cccc1OC)N1CCOCC1 (centres unmarked) [Example 10o, 4-Ethoxy-2-[4-morpholinyl]butyric acid, 2,6-dimethoxyphenyl ester]  36 µmol/kg
9. CCOCCC(C(=O)Oc1c(OC)cc(C)cc1OC)N1CCOCC1 (centres unmarked) [Example 10t, 4-Ethoxy-2-[4-morpholinyl]butyric acid, 2,6-dimethoxy-4-methylphenyl ester]  36 µmol/kg
10. COCCC(C(=O)Oc1c(OC)cccc1OC)N1CCOCC1 (centres unmarked) [Example 10b, 4-Methoxy-2-[4-morpholinyl]butyric acid, 2,6-dimethoxyphenyl ester]  38 µmol/kg
11. COCC(C(=O)Oc1c(OC)cc(C)cc1OC)N1CCSCC1 (centres unmarked) [Example 3j, 3-Methoxy-2-[N-thiomorpholinyl]propionic acid, 2,6-dimethoxy-4-methylphenyl ester]  42 µmol/kg
12. COCCN(C)C(COC)C(=O)Oc1c(OC)cc(C)cc1OC (centres unmarked) [Example 3l, 3-Methoxy-2-[N-(2-Methoxyethyl)methylamino]propionic acid, 2,6-dimethoxy-4-methylphenyl ester]  58 µmol/kg

Same assay, conditions: intravenous injection over 10 seconds, dose causing loss of righting reflex for minimum 30 seconds in 50% of treated mice

In order of rising “HD50 (hypnotic dose50)” value:
1. COCCC(C(=O)Oc1c(OC)cccc1OC)N1CCCOCC1 (centres unmarked) [Example 10a, 2-[4-(Hexahydro-1-oxazepinyl)]-4-methoxybutyric acid, 2,6-dimethoxyphenyl ester]  15 µmol/kg
2. COCCC(C(=O)Oc1c(OC)cccc1OC)N1CCCCCC1 (centres unmarked) [Example 10e, 2-[1-(Hexahydroazepinyl)]-4-methoxybutyric acid, 2,6-dimethoxyphenyl ester]  17 µmol/kg
3. CCOCC(C(=O)Oc1c(OC)cccc1OC)N1CCCOCC1 (centres unmarked) [Example 3r, 3-Ethoxy-2-[4-(Hexahydro-1-oxazepinyl)]propionic acid, 2,6-dimethoxyphenyl ester]  20 µmol/kg
4. COCC(C(=O)Oc1c(OC)cccc1OC)N1CCSCC1 (centres unmarked) [Example 3c, 3-Methoxy-2-[N-thiomorpholinyl]propionic acid, 2 ,6-dimethoxyphenyl ester]  21 µmol/kg
5. COCCC(C(=O)Oc1c(OC)cccc1OC)N1CCC(OC)CC1 (centres unmarked) [Example 10d, 4-Methoxy-2-[1-(4-methoxypiperidinyl)]butyric acid, 2,6-dimethoxyphenyl ester]  21 µmol/kg
6. 2-[N-(Hexahydroazepinyl)]-3-methoxypropionic acid, 2,6-dimethoxyphenyl ester [Example 3d]  22 µmol/kg
7. COCCC(C(=O)Oc1c(OC)cccc1OC)N1CC=CCC1 (centres unmarked) [Example 10c, 4-Methoxy-2-[1-(1,2,3,6-tetrahydropyridinyl)]butyric acid, 2,6-dimethoxyphenyl ester]  22 µmol/kg
8. CCOCCN(CCOCC)C(COC)C(=O)Oc1c(OC)cc(C)cc1OC (centres unmarked) [Example 3q, 2-[N-Bis(2-ethoxyethyl)amino]-3-methoxypropionic acid, 2,6-dimethoxy-4-methylphenyl ester]  23 µmol/kg
9. CCOCCC(C(=O)Oc1c(OC)cccc1OC)N1CCCOCC1 (centres unmarked) [Example 10p, 4-Ethoxy-2-[4-(hexahydro-1-oxazepinyl)]butyric acid, 2,6-dimethoxyphenyl ester]  23 µmol/kg
10. CCOCCN(CCOCC)C(COC)C(=O)Oc1c(OC)cccc1OC (centres unmarked) [Example 3g, 2-[N-Bis(3-ethoxyethyl)amino]-3-methoxypropionic acid, 2,6-dimethoxyphenyl ester]  25 µmol/kg
11. COCCC(C(=O)Oc1c(OC)cc(C)cc1OC)N1CCCOCC1 (centres unmarked) [Example 10j, 2-[4-(Hexahydro-1-oxazepinyl)]-4-methoxybutyric acid, 2,6-dimethoxy-4-methylphenyl ester]  25 µmol/kg
12. CCOCCN(CCOCC)C(CCOC)C(=O)Oc1c(OC)cc(C)cc1OC (centres unmarked) [Example 10m, 2-[N-(Bis(2-ethoxyethyl)amino)]-4-methoxybutyric acid, 2,6-dimethoxy-4-methylphenyl ester]  25 µmol/kg
13. COCCC(C(=O)Oc1c(OC)cc(C)cc1OC)N(CCOC)CCOC (centres unmarked) [Example 10l, 2-[N-(Bis(2-methoxyethyl)amino)]-4-methoxybutyric acid, 2,6-dimethoxy-4-methylphenyl ester]  26 µmol/kg
14. CCOCCC(C(=O)Oc1c(OC)cc(C)cc1OC)N1CCCOCC1 (centres unmarked) [Example 10w, 4-Ethoxy-2-[4-(hexahydro-1-oxazepinyl)]butyric acid, 2,6-dimethoxy-4-methylphenyl ester]  26 µmol/kg
15. COCCC(C(=O)Oc1c(OC)cccc1OC)N(CCOC)CCOC (centres unmarked) [Example 10h, 2-[N-(Bis(2-methoxyethyl)amino)]-4-methoxybutyric acid, 2,6-dimethoxyphenyl ester]  27 µmol/kg
16. CCOCCC(C(=O)Oc1c(OC)cccc1OC)N(CCOC)CCOC (centres unmarked) [Example 10r, 2-[N-(Bis(2-methoxyethyl)amino)]-4-ethoxybutyric acid, 2,6-dimethoxyphenyl ester]  27 µmol/kg
17. COCCN(CCOC)C(COC)C(=O)Oc1c(OC)cc(C)cc1OC (centres unmarked) [Example 3i, 2-[N-Bis(2-methoxyethyl)amino]-3-methoxypropionic acid, 2,6-dimethoxy-4-methylphenyl ester]  28 µmol/kg
18. COCCN(CCOC)C(COC)C(=O)Oc1c(OC)cc(C)cc1OC (centres unmarked) [Example 4a, 2-[N-Bis(2-methoxyethyl)amino]-3-methoxypropionic acid, 2,6-dimethoxy-4-methylphenyl ester]  28 µmol/kg
19. CCOCCN(CCOCC)C(CCOC)C(=O)Oc1c(OC)cccc1OC (centres unmarked) [Example 10g, 2-[N-(Bis(2-ethoxyethyl)amino)]-4-methoxybutyric acid, 2,6-dimethoxyphenyl ester]  28 µmol/kg
20. COCC(C(=O)Oc1c(OC)cccc1OC)N1CCCOCC1 (centres unmarked) [Example 3a, 2-[4-(Hexahydro-1-oxazepinyl)]-3-methoxypropionic acid, 2,6-dimethoxyphenyl ester]  30 µmol/kg
21. COCC(C(=O)Oc1c(OC)cc(C)cc1OC)N1CCCOCC1 (centres unmarked) [Example 3m, 2-[4-(Hexahydro-1-oxazepinyl)]-3-methoxypropionic acid, 2,6-dimethoxy-4-methylphenyl ester]  31 µmol/kg
22. COc1cccc(OC)c1OC(=O)C(CN1CCOC(C)(C)C1)N1CCOC(C)(C)C1 (centres unmarked) [Example 18b, 2,3-Di-[4-(2,2-dimethylmorpholinyl)]propanoic acid, 2,6-dimethoxyphenyl ester]  31 µmol/kg
23. COCCC(C(=O)Oc1c(OC)cc(C)cc1OC)N1CCC(OC)CC1 (centres unmarked) [Example 10k, 4-Methoxy-2-[1-(4-methoxypiperidinyl)]butyric acid, 2,6-dimethoxy4-methylphenyl ester]  34 µmol/kg
24. COCCC(C(=O)Oc1c(OC)cc(C)cc1OC)N1CCCCCC1 (centres unmarked) [Example 10n, 2-[1-(Hexahydroazepinyl)]-4-methoxybutyric acid, 2,6-dimethoxy-4-methylphenyl ester]  38 µmol/kg
25. 2-[N-(Bis(2-methoxyethyl)amino)]-4-ethoxybutyric acid, 2,6-dimethoxy-4-methylphenyl ester [Example 10v]  41 µmol/kg
26. COCCN(CCOC)C(COC)C(=O)Oc1c(OC)cccc1OC (centres unmarked) [Example 3b, 2-[N-Bis(2-methoxyethyl)amino]-3-methoxypropionic acid, 2,6-dimethoxyphenyl ester]  41 µmol/kg
27. COCCCN(CCCOC)C(COC)C(=O)Oc1c(OC)cccc1OC (centres unmarked) [Example 3f, 2-[N-Bis(3-methoxypropyl)amino]-3-methoxypropionic acid, 2,6-dimethoxyphenyl ester]  46 µmol/kg
28. COCCCN(CCCOC)C(COC)C(=O)Oc1c(OC)cc(C)cc1OC (centres unmarked) [Example 3p, 2-[N-Bis(3-methoxypropyl)amino]-3-methoxypropionic acid, 2,6-dimethoxy-4-methylphenyl ester]  46 µmol/kg
29. CCOCCC(C(=O)Oc1c(OC)cccc1OC)N(CCOCC)CCOCC (centres unmarked) [Example 10s, 2-[N-(Bis(2-ethoxyethyl)amino)]-4-ethoxybutyric acid, 2,6-dimethoxyphenyl ester]  47 µmol/kg
